Assay results: publication PMC8708580, “Structure Revision and Protein Tyrosine Phosphatase Inhibitory Activity of Drazepinone” (Marine Drugs, 2021)
Where two headings read alike, the source gives them in different places.

Tests used:
[1] = molecular target: T1, PTP1B (Homo sapiens, UniProt P18031); test: PTP inhibitory activity assay, PTP1B; type: biochemical; settings: in vitro; Na3VO4 positive control
T1 sequence (P18031 1-435): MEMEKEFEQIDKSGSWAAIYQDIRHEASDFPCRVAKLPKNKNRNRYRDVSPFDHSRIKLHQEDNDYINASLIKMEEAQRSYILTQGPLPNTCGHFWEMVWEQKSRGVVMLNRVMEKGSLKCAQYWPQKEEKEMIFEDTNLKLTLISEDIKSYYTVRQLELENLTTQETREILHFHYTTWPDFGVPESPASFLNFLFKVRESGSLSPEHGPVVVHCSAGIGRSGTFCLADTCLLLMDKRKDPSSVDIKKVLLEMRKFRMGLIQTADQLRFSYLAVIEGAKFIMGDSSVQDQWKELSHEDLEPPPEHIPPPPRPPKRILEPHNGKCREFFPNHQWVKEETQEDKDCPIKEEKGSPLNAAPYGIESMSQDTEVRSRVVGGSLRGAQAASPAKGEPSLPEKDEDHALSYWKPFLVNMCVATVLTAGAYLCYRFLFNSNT
Description: Thus, the isolated compounds (+)-1 and (−)-1 were tested for their PTP inhibitory activity against PTP1B, TCPTP, SHP1, and CD45.
PTP inhibitory activity of (+)-1 and (−)-1 against PTP1B, TCPTP, SHP1, and CD45 was tested in the same way as that described in the literature.

[2] = molecular target: T2, TCPTP (Homo sapiens, UniProt P17706); test: PTP inhibitory activity assay, TCPTP; type: biochemical; settings: in vitro; Na3VO4 positive control
T2 sequence (P17706 1-415): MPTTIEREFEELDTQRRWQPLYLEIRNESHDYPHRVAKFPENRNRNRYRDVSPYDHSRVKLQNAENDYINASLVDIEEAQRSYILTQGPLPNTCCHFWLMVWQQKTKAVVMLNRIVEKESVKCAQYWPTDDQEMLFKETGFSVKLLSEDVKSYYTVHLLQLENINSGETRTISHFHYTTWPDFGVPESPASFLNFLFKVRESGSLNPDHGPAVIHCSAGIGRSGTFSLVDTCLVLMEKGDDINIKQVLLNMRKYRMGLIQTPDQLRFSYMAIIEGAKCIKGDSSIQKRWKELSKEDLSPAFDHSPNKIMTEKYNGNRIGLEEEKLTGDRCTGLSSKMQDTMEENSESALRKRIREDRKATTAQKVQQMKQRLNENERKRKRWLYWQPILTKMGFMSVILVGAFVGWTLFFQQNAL
Description: (§1) Protein tyrosine phosphatases (PTPs), including PTP1B, T-cell PTP (TCPTP), Src homology-2 domain-containing PTP-1 (SHP1), and CD45 PTP (CD45), a family of enzymes that hydrolytically remove phosphate groups from proteins, have attracted much attention recently for drug discovery. […] Thus, the isolated compounds (+)-1 and (−)-1 were tested for their PTP inhibitory activity against PTP1B, TCPTP, SHP1, and CD45.
(§2) PTP inhibitory activity of (+)-1 and (−)-1 against PTP1B, TCPTP, SHP1, and CD45 was tested in the same way as that described in the literature. Na3VO4 was used as the positive control.

[3] = molecular target: T3, CD45 (Homo sapiens, UniProt P08575); test: PTP inhibitory activity assay, CD45; type: biochemical
T3 sequence (P08575 26-1306): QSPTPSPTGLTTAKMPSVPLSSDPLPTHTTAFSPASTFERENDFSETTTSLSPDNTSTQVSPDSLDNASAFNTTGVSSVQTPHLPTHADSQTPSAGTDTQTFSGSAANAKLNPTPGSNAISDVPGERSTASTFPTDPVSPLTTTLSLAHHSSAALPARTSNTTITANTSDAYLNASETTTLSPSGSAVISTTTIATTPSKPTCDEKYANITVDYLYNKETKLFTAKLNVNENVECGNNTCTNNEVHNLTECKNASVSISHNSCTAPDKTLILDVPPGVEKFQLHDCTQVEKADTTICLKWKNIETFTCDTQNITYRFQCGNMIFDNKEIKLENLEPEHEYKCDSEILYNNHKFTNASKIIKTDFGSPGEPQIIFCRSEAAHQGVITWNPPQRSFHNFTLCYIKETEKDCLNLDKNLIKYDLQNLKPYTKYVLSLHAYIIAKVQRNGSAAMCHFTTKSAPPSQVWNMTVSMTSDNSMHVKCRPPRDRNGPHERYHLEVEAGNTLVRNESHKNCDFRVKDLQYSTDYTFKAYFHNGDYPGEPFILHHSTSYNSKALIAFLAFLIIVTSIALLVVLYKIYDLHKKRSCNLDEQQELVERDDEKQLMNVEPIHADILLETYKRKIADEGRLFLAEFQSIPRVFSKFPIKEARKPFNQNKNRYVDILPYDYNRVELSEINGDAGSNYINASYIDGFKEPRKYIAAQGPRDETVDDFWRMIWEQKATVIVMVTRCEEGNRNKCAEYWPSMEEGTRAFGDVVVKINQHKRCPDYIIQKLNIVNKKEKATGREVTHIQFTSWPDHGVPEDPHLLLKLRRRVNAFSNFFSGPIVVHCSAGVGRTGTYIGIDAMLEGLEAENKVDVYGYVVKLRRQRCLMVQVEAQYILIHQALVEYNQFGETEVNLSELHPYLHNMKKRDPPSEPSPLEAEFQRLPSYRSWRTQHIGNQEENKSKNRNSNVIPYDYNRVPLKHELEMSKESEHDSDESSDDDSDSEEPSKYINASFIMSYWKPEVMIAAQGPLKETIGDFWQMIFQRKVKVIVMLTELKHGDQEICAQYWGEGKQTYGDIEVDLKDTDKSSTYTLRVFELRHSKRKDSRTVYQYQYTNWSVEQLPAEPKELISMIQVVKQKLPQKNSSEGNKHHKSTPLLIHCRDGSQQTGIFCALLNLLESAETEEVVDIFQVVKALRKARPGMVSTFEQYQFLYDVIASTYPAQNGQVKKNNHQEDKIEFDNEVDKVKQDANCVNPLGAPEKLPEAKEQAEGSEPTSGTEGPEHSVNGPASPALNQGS
Description: as §1, §2

[4] = set-up: method as in PMID 15771896; settings: at a concentration of 2.0 μg/μL; cited from earlier work
[5] = set-up: method as in PMID 15771896; settings: at a concentration of 2.0 μg/μL; cited from earlier work; remark: listed apart in the source
[6] = in vitro, Na3VO4 positive control

IC50 [1]	IC50 PTP1B [1]	IC50 [2]	IC50 TCPTP [2]	IC50 [3]	IC50 CD45 [3, 6]	IC50 [3, 6]	Compound	herbicidal properties [4]	zootoxic activity [5]
> 85.2 µM	no activity	> 85.2 µM	no activity	> 85.2 µM	no activity		CC1=CC2(C)Oc3c(-c4ccccc4)c[nH]c(=O)c3C2C1C (single isomer, unassigned; (+)) [(+)-1]		
5.32 µM		42.6 µM				> 85.2 µM	CC1=CC2(C)Oc3c(-c4ccccc4)c[nH]c(=O)c3C2C1C (single isomer, unassigned; (-)) [(−)-1]		
			3.13 µg/mL		6.25 µg/mL		[Na+].[Na+].[Na+].[O]=[V]([O-])([O-])[O-] [Na3VO4, reference compound]		
							CC1=CC(C)C2c3cc4ccccc4cc3OC2(C)NC1=O (stereo not shown) [drazepinone, Drazepinone]	broad-spectrum herbicidal properties	low zootoxic activity
